Reference: patent US20250042873A1, “COMPOSITIONS AND METHODS FOR TREATING PROTEOTOXICITY-ASSOCIATED DISEASES” (priority 2021, published 2025)
Entries after “also recorded” stand apart in the source; their conditions may differ.

Experiments:
[1] = Brain penetration and pharmacokinetic studies using mass spectrometry analysis after intraperitoneal administration; assay type: in vivo; conditions: mice; for blood-brain barrier penetration (detection in brain and spinal cord tissues): within minutes after intraperitoneal administration, mass spectrometry
[2] = test system: tau protein expressed in human HEK293 cells; assay: Clearance of tau protein expressed in human HEK293 cells; assay type: cell-based; conditions: FIG. 4B
SOD1G93A ALS mouse model [3] = assay: Motor performance in the SOD1G93A ALS mouse model (Rotarod behavioral assays); assay type: in vivo; conditions: intraperitoneal injections at the same drug concentration, compared with UNC669, FIG. 3J
Procedure: The effect of UNC669 was tested on one of the most characterized mouse model of proteotoxicity, the SOD1G93A ALS model.
A number of the newly synthesized UNC669 analogs have been tested for their effects on the clearance of misfolded proteins in the cells.

[4] = test system: misfolded mutant SOD1 in the spinal cords; conditions: FIG. 2D (prior art), cited from earlier work
SOD1G93A ALS mouse model [5] = conditions: SOD1G93A mice, 17 mg/kg intraperitoneal, weekly from 8 weeks of age, after 12 weeks, FIG. 2B (prior art); cited from earlier work

O=C(c1cncc(Cl)c1)N1CCC(N2CCCC2)CC1 [FX6]
blood-brain barrier penetration (detection in brain and spinal cord tissues) [1]: can penetrate the blood-brain barrier | clearance / levels of tau protein [2]: higher efficacy | effect on improving motor performance (Rotarod) (SOD1G93A ALS mouse model [3]): greater effects on improving the animals' motor performance

N#Cc1cccc(C(=O)N2CCC(N3CCCC3)CC2)n1 [FX8]
concentrations in the plasma, brain, or spinal cords ([1]; 3 hours after intraperitoneal administration, FX8 vs FX6 or UNC669, FIG. 3I): highest levels of accumulation | blood-brain barrier penetration (detection in brain and spinal cord tissues) [1]: can penetrate the blood-brain barrier | clearance / levels of tau protein [2]: higher efficacy | effect on improving motor performance (Rotarod) (SOD1G93A ALS mouse model [3]): greater effects on improving the animals' motor performance

O=C(c1cncc(Br)c1)N1CCC(N2CCCC2)CC1 [UNC669]
neuronal / motor neuron health (CHAT staining) ([4]; SOD1-G93A mice spinal cords): improved the health of the motor neurons; also recorded: improved neuronal health | immunostaining of spinal cords with antibody specific for misfolded proteins ([4]; SOD1-G93A mice): reduction of the mutant protein | clearance / levels of tau protein [2]: decrease the levels of tau proteins; also recorded: enhanced clearance of tau protein | motor ability / motor performance of the animals (SOD1G93A ALS mouse model [5]): improvement in the animals' motor performance; also recorded: improves the motor ability of the animals
